Legend:
[1] = biological target: T1, Oxysterols receptor LXR-beta (Homo sapiens, UniProt P55055); test: Agonist activity at Gal4-tagged LXRbeta (unknown origin) expressed in CHOK1 cells after 24 hrs by luciferase reporter gene assay; type: cell-based, CHO-K1
T1 sequence (P55055 whole entry): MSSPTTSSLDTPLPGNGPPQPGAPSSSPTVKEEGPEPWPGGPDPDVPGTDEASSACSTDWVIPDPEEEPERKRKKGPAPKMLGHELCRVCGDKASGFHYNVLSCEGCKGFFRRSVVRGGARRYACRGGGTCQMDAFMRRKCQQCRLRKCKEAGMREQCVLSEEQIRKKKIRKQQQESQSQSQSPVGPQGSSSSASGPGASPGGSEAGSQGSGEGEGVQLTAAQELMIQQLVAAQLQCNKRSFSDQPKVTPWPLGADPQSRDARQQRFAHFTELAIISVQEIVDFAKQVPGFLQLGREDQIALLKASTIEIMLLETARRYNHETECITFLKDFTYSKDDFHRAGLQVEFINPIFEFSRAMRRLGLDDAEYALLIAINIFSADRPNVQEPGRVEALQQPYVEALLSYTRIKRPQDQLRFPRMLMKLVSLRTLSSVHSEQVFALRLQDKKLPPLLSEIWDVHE

[2] = biological target: T2, Oxysterols receptor LXR-alpha (Homo sapiens, UniProt Q13133); test: Agonist activity at Gal4-tagged LXRalpha (unknown origin) expressed in CHOK1 cells after 24 hrs by luciferase reporter gene assay; type: cell-based, CHO-K1
T2 sequence (Q13133 whole entry): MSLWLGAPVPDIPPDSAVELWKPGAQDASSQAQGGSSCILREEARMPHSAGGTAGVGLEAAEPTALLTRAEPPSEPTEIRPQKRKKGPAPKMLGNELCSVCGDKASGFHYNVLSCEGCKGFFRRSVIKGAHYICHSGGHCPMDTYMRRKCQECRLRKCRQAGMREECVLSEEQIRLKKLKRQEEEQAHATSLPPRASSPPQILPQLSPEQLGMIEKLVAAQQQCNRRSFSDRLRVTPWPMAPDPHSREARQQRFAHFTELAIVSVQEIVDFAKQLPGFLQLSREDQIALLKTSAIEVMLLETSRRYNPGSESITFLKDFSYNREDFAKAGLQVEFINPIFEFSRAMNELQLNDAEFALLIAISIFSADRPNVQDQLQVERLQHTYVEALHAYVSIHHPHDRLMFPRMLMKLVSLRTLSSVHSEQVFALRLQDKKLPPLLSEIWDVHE

HepG2 [3] = test: Ratio of induction of ABCA1 mRNA expression to SREBP-1c mRNA expression in human HepG2 cells at 5 uM; type: functional
HepG2 [4] = test: Induction of ABCA1 mRNA expression in human HepG2 cells at 5 uM relative to control; type: functional
HepG2 [5] = test: Induction of SREBP-1c mRNA expression in human HepG2 cells at 5 uM relative to control; type: functional
Hamster [6] = test: Effect on total cholesterol level in high-fat-and-cholesterol diet fed Male Bio F1B hamster plasma at 3 mg/kg, po relative to control; type: functional, Cricetinae
Hamster [7] = test: Effect on Plasma triglyceride level in high-fat-and-cholesterol diet fed Male Bio F1B hamster at 10 mg/kg, po relative to control; type: organism-based; set-up: dose 10 mg/kg, route oral; conditions: cricetinae, in vivo
Hamster [8] = test: Effect on area of lipid accumulation in high-fat-and-cholesterol diet fed Male Bio F1B hamster aortic arch at 10 mg/kg, po relative to control; type: functional, Cricetinae
Hamster [9] = test: Effect on total cholesterol level in high-fat-and-cholesterol diet fed Male Bio F1B hamster plasma at 10 mg/kg, po relative to control; type: functional, Cricetinae
Hamster [10] = test: Effect on Plasma triglyceride level in high-fat-and-cholesterol diet fed Male Bio F1B hamster at 3 mg/kg, po relative to control; type: organism-based; set-up: dose 3 mg/kg, route oral; conditions: cricetinae, in vivo
Hamster [11] = test: Effect on area of lipid accumulation in high-fat-and-cholesterol diet fed Male Bio F1B hamster aortic arch at 3 mg/kg, po relative to control; type: functional, Cricetinae
Hamster [12] = test: Effect on HDL-C level in high-fat-and-cholesterol diet fed Male Bio F1B hamster plasma at 10 mg/kg, po relative to control; type: functional, Cricetinae
Hamster [13] = test: Effect on Plasma triglyceride level in high-fat-and-cholesterol diet fed Male Bio F1B hamster at 3 to 10 mg/kg, po relative to control; type: organism-based; set-up: dose 3-10 mg/kg, route oral; conditions: cricetinae, in vivo
Hamster [14] = test: Effect on HDL-C level in high-fat-and-cholesterol diet fed Male Bio F1B hamster plasma at 3 mg/kg, po relative to control; type: functional, Cricetinae
Hamster [15] = test: Effect on HDL-C level in high-fat-and-cholesterol diet fed Male Bio F1B hamster plasma at 3 to 10 mg/kg, po relative to control; type: functional, Cricetinae; conditions: dose mg/kg 3-10

CCCc1cc2c(C(F)(F)F)cc(=O)oc2c(CCC)c1OCCCCN1C(=O)NC(C)(c2ccc(C(=O)O)cc2)C1=O (stereo not drawn)
EC50 ([1]; cho-k1): Not Active | EC50 ([2]; cho-k1): Not Active

O=C(O)Cc1cccc(OCCCN(Cc2cccc(C(F)(F)F)c2Cl)CC(c2ccccc2)c2ccccc2)c1
EC50 ([1]; read-out: EC50): 420 nM | EC50 ([2]; read-out: EC50): 1300 nM | Ratio (HepG2 [3]): 3.1 | fold change (FC) (HepG2 [4]): 15 | fold change (FC) (HepG2 [5]): 4.9

CCCc1cc2c(C(F)(F)F)cc(=O)oc2c(CCC)c1OCCCCN1C(=O)N(C)C(C)(C)C1=O
EC50 ([1]; read-out: EC50): 4700 nM | EC50 ([2]; read-out: EC50): 11000 nM

CCCc1cc2c(C(F)(F)F)cc(=O)oc2c(CCC)c1OCCCCN1C(=O)NC(C)(c2ccc3c(c2)OCO3)C1=O (stereo not drawn)
EC50 ([1]; read-out: EC50): 1200 nM

CCCc1cc2c(C(F)(F)F)cc(=O)oc2c(CCC)c1OCCCCN1C(=O)NC(C)(c2ccc(O)cc2)C1=O (stereo not drawn)
EC50 ([1]; cho-k1): Not Active | EC50 ([2]; cho-k1): Not Active

CCCc1cc2c(C(F)(F)F)cc(=O)oc2c(CCC)c1OCCCCN1C(=O)NC(C)(c2cccc(OC)c2)C1=O (stereo not drawn)
EC50 ([1]; cho-k1): Not Active | EC50 ([2]; cho-k1): Not Active

CCCc1c(OCCCCN2C(=O)NC(C)(c3ccc(O)cc3)C2=O)ccc2c(C(F)(F)F)cc(=O)oc12 (stereo not drawn)
EC50 ([2]; cho-k1): Not Active

CCCc1cc2c(C(F)(F)F)cc(=O)oc2c(CCC)c1OCCCCN1CCOC1=O
EC50 ([1]; read-out: EC50): 2200 nM

CCN(CC)c1ccc2c(C(F)(F)F)cc(=O)oc2c1
Ratio (HepG2 [3]): 0.4 | fold change (FC) (HepG2 [4]): 1.3 | fold change (FC) (HepG2 [5]): 3.3

CCCc1c(OCCCCN2C(=O)NC(C)(c3ccc4c(c3)OCO4)C2=O)ccc2c(C(F)(F)F)cc(=O)oc12 (stereo not drawn)
EC50 ([1]; read-out: EC50): 1100 nM

CCCc1c(OCCCN2C(=O)CSC2=O)ccc2c(C(F)(F)F)noc12
EC50 ([1]; read-out: EC50): 690 nM | EC50 ([2]; read-out: EC50): 1300 nM

CCCc1cc2c(C(F)(F)F)cc(=O)oc2c(CCC)c1OCCCCN1C(=O)NC(C)(c2ccc(OC)c(OC)c2)C1=O (stereo not drawn)
EC50 ([1]; cho-k1): Not Active | EC50 ([2]; cho-k1): Not Active

CCCc1cc2c(C(F)(F)F)cc(=O)oc2c(CCC)c1OCCCCN1C(=O)NC(C)(c2ccc([N+](=O)[O-])cc2)C1=O (stereo not drawn)
EC50 ([1]; read-out: EC50): 8000 nM | EC50 ([2]; cho-k1): Not Active

CC(C)c1cc(=O)oc2c3c4c(cc12)CCCN4CCC3
Ratio (HepG2 [3]): 3.6 | fold change (FC) (HepG2 [4]): 5 | fold change (FC) (HepG2 [5]): 1.4

CCCc1cc2c(C(F)(F)F)cc(=O)oc2c(CCC)c1OCCCCN1C(=O)CSC1=O
EC50 ([1]; read-out: EC50): 1400 nM | EC50 ([2]; read-out: EC50): 2600 nM

CCCc1c(OCCCCN2C(=O)NC(C)(c3ccc(C(=O)O)cc3)C2=O)ccc2c(C(F)(F)F)cc(=O)oc12 (stereo not drawn)
EC50 ([1]; cho-k1): Not Active | EC50 ([2]; cho-k1): Not Active

O=S(=O)(c1ccccc1)N(CC(F)(F)F)c1ccc(C(O)(C(F)(F)F)C(F)(F)F)cc1 [T091317]
Activity (Hamster [6]): 123% | Activity (Hamster [7]): 243% | Activity (Hamster [8]): 52% | Activity (Hamster [9]): 127% | Activity (Hamster [10]): 206% | Activity (Hamster [11]): 53% | Activity (Hamster [12]): 59% | Activity (Hamster [13]): 50% | Activity (Hamster [14]): 67% | fold change (FC) (Hamster [15]): 3

— ChEMBL document CHEMBL3399967, “Design and discovery of 2-oxochromene derivatives as liver X receptor β-selective agonists” (Bioorg Med Chem Lett, 2015)
